Assay results reported in article PMC4492764, “Evaluation of biomarkers for in vitro prediction of drug-induced nephrotoxicity: comparison of HK-2, immortalized human proximal tubule epithelial, and primary cultures of human proximal tubular cells” (Pharmacology Research & Perspectives, 2015).
Counter-ions that a name gives are not always drawn.

Experiments:
KIM-1 mRNA = KIM-1 mRNA qRT-PCR in HK-2 cells; type: cell-based, human; parameters: key to Upregulation of KIM-1 HK-2 R: +: statistically significant increase; −: no significant increase; settings: for Upregulation of KIM-1 HK-2 R: mRNA levels, 72 h time point
Procedure: (§1) HK-2 cells (ATCC CRL-2190; Manassas, VA) were maintained in DMEM/F12 (Life Technologies; Sydney, NSW, Australia) supplemented with 5 μg/mL insulin, 5 μg/mL transferrin, 5 ng/mL sodium selenite (ITS; Roche; […] (passage 2) and culture kits were purchased from Lonza. […] were maintained in Renal Epithelial Cell BulletKitTM (CC-3190, Lonza) at 37°C and 5% CO2 atmosphere. Cells were passaged to 96-well plates with a density of 4000 cells/well. After 24 h culture, compounds with different concentration series were added into each well and incubated for 4, 24, 48, and 72 h. HK-2 and […] were treated with compounds for 4, 24, 48, and 72 h, then the cells were lysed and the RNA reverse transcribed with the TaqMan® Gene Expression Cells-to-CTTM Kit (Life Technologies) according to the manufacturer's instructions. […] Hs00273334_m1), Lcn2 (NGAL; Hs01008571_m1), and Csf1 (M-CSF; Hs00174164_m1). All probes span an exon-exon junction. The real-time quantitative reverse transcription PCR (qRT-PCR) was performed in a 10 μl final reaction mixture using a ViiA 7TM system (Applied Biosystems®, Sydney, NSW, Australia) based on the following thermo cycling conditions: 10 min at 95°C for one cycle, 15 sec at 95°C, 60 sec at 60°C for 40 cycles. The ViiA 7TM software was used for data analysis with Hprt1 expression used for normalization. All assays were performed at least three times, with at least two technical replicates in each assay.

M-CSF mRNA [1] = assay: M-CSF mRNA qRT-PCR in HK-2 cells; type: cell-based, human; parameters: key to Upregulation of M-CSF HK-2 R: +: statistically significant increase; −: no significant increase; settings: for Upregulation of M-CSF HK-2 R: mRNA levels, 72 h time point
Procedure: (§2) Hs00273334_m1), Lcn2 (NGAL; Hs01008571_m1), and Csf1 (M-CSF; Hs00174164_m1). All probes span an exon-exon junction. The real-time quantitative reverse transcription PCR (qRT-PCR) was performed in a 10 μl final reaction mixture using a ViiA 7TM system (Applied Biosystems®, Sydney, NSW, Australia) based on the following thermo cycling conditions: 10 min at 95°C for one cycle, 15 sec at 95°C, 60 sec at 60°C for 40 cycles. The ViiA 7TM software was used for data analysis with Hprt1 expression used for normalization. All assays were performed at least three times, with at least two technical replicates in each assay.

KIM-1 = settings: published in vivo data; ref Vaidya et al. [2006]; cited from earlier work
M-CSF mRNA [2] = assay: M-CSF mRNA qRT-PCR in hRPTECs; type: cell-based, human; parameters: key to Upregulation of M-CSF hRPTECs R: +: statistically significant increase; −: no significant increase; settings: for M-CSF mRNA levels in hRPTECs: 72 h (Fig.4C); for Upregulation of M-CSF hRPTECs R: mRNA levels, 72 h time point
Procedure: as §2

M-CSF [3] = test system: M-CSF; parameters: key: +: statistically significant increase; −: no significant increase; settings: published in vivo data; ref Razzaque and Taguchi [2002]; Menke et al. [2009]; cited from earlier work
M-CSF [4] = assay: M-CSF protein ELISA in HK-2 cells; type: cell-based, human; parameters: key: +: statistically significant increase; −: no significant increase; settings: protein levels in culture medium; 72 h time point
Procedure: (§3) Sandwich-ELISA experiments were conducted following the manufacturer's instructions with slight modifications. A 96-well microplate (MaxiSorp®, Nunc, Thermo Scientific, NSW, Australia) was coated with 100 μL of capture antibodies (diluted 1:200 in PBS) and incubated overnight. The plate was then washed twice with washing buffer (0.05% Tween 20 in PBS, pH 7.4) and blocked by adding 300 μL of blocking buffer (1% bovine serum albumin (BSA) in PBS) for 1 h at room temperature. After washing two times with PBS, 100 μL of samples (cell culture media or cell lysates) or standards were then added to each well and incubated for 2 h at room temperature. The biotinylated detection antibodies were then diluted in blocking buffer, added to each well and incubated for 2 h. Horseradish peroxidase (HRP)-labeled streptavidin (100 μL) was then added to bind to detection antibodies. To each well, 100 μL of substrate solution (1:1 mixture of H2O2 and tetramethylbenzidine) was added and incubated for 20 min before reaction termination with 50 μL of stop solution (2N H2SO4). The optical density of each well was measured at 450 nm using a POLARstar Omega plate reader (BMG Labtech). All assays were performed at least three times, with at least two technical replicates in each assay.

M-CSF [5] = assay: M-CSF protein ELISA in hRPTECs; type: cell-based, human; parameters: key: +: statistically significant increase; −: no significant increase; settings: protein levels in culture medium; 72 h time point
Procedure: as §3

NGAL mRNA = NGAL mRNA qRT-PCR in HK-2 cells; type: cell-based, human; parameters: key to Upregulation of NGAL HK-2 R: +: statistically significant increase; −: no significant increase; settings: for Upregulation of NGAL HK-2 R: mRNA levels, 72 h time point
Procedure: as §1

hRPTECs [6] = assay: MTT cytotoxicity assay in hRPTECs; type: cell-based, human; settings: 72 h incubation; Mean ± Standard deviation, n = 3
Procedure: (§4) For the MTT assay, the medium was then removed, the dried crystals were resuspended in 60 μL of Dimethyl sulfoxide (DMSO), and the absorbance was read at 570 nm. For the resazurin assay, the fluorescence intensity was read using a PolarStar Omega plate reader (BMG Labtech; Mornington VIC, Australia) at excitation/emission 560/590 nm. All assays were performed at least three times. […] La Jolla, CA). Both MTT and resazurin assays were performed three times, with two technical replicates in each assay.

HK-2 cells [7] = assay: Resazurin cytotoxicity assay in HK-2 cells; type: cell-based, human
Procedure: as §4

hRPTECs [8] = assay: Resazurin cytotoxicity assay in hRPTECs; type: cell-based, human
Procedure: as §4

HK-2 cells [9] = assay: MTT cytotoxicity assay in HK-2 cells; type: cell-based, human; settings: 72 h incubation; Mean ± Standard deviation, n = 3
Procedure: as §4

[10] = MTT cytotoxicity assay in hRPTECs; type: cell-based, human; settings: human, hRPTECs (passage 2); 72 h incubation; Mean ± Standard deviation, n = 3
Procedure: as §4

[11] = Resazurin cytotoxicity assay in HK-2 cells; type: cell-based, human; settings: human, HK-2 cells; 72 h incubation; Mean ± Standard deviation, n = 3
Procedure: as §4

[12] = Resazurin cytotoxicity assay in hRPTECs; type: cell-based, human; settings: human, hRPTECs (passage 2); 72 h incubation; Mean ± Standard deviation, n = 3
Procedure: as §4

[13] = MTT cytotoxicity assay in HK-2 cells; type: cell-based, human; settings: human, HK-2 cells; 72 h incubation; Mean ± Standard deviation, n = 3
Procedure: as §4

[14] = 72 h incubation, Mean ± Standard deviation, n = 3
[15] = 72 h, highest concentrations gentamicin 1 mmol/L, CsA 50 μmol/L, cell type not given

Compound: N.N.[Cl][Pt][Cl] [Cisplatin, cisplatin]
- KIM-1 mRNA transcription level in HK-2 cells (KIM-1 mRNA; 72 h, P < 0.005): increased
- Upregulation of KIM-1 HK-2 R (KIM-1 mRNA): +
- M-CSF mRNA level in HK-2 cells (M-CSF mRNA [1]; 72 h exposure, P < 0.005): clearly increased
- Upregulation of M-CSF HK-2 R (M-CSF mRNA [1]): +
- Upregulation of KIM-1 in vivo (KIM-1): >5-fold (Vaidya et al. [2006])
- M-CSF mRNA levels in hRPTECs (M-CSF mRNA [2]): significant results
- Upregulation of M-CSF hRPTECs R (M-CSF mRNA [2]): +
- Upregulation of M-CSF in vivo (M-CSF [3]): + (Razzaque and Taguchi [2002]; Menke et al. [2009])
- Upregulation of M-CSF HK-2 P (M-CSF [4]): −
- Upregulation of M-CSF hRPTECs P (M-CSF [5]): +
- NGAL mRNA level in HK-2 cells (NGAL mRNA; 72 h exposure, P < 0.01): clearly increased
- Upregulation of NGAL HK-2 R (NGAL mRNA): +

Compound: Colistin sulfate
- CC50 (hRPTECs [6]): > 300 µM
- Upregulation of KIM-1 HK-2 R (KIM-1 mRNA): −
- CC50 (HK-2 cells [7]; [14]): > 300 µM
- Upregulation of M-CSF HK-2 R (M-CSF mRNA [1]): −
- M-CSF mRNA levels in hRPTECs (M-CSF mRNA [2]): significant results
- Upregulation of M-CSF hRPTECs R (M-CSF mRNA [2]): +
- Upregulation of M-CSF HK-2 P (M-CSF [4]): −
- CC50 (hRPTECs [8]; [14]): 177 ± 15 µM
- CC50 (HK-2 cells [9]): > 300 µM
- Upregulation of M-CSF hRPTECs P (M-CSF [5]): −
- Upregulation of NGAL HK-2 R (NGAL mRNA): −

Compound: CNC(C)C1CCC(N)C(OC2C(N)CC(N)C(OC3OCC(C)(O)C(NC)C3O)C2O)O1 (stereo not shown) [Gentamicin, gentamicin sulfate]
- CC50 at 72 h [10]: > 1000 µM
- Upregulation of KIM-1 HK-2 R (KIM-1 mRNA): −
- CC50 at 72 h [11]: > 1000 µM
- toxicity in resazurin assay at highest concentration tested (HK-2 cells [7]; [15]): no toxicity
- CC50 at 72 h [12]: > 1000 µM
- toxicity in resazurin assay at highest concentration tested (hRPTECs [8]; [15]): no toxicity
- CC50 at 72 h [13]: > 1000 µM
- Upregulation of NGAL HK-2 R (NGAL mRNA): −
